Assay results taken from publication PMC12645137 (Current Neuropharmacology, 2025).

Assays:
[1] = system: mice; assay: Acute toxicity study; assay type: in vivo, albino mice; conditions: i.p., doses 25 to 1000 mg/kg
Method: In our study, experimental animals (albino mice male/female weighing 18-32 gm) were obtained from the National Institute of Health (NIH), Islamabad, Pakistan. These animals were provided adequate food, water, and light (ad libitum). Appropriate conditions were maintained as per laboratory specifications, including a temperature of 22°C a dark and light cycle of 12 hours each. As per the Animals Scientific Procedure Act 1986, UK, the in-vivo studies were performed on experimental animals from 9:00 am to 4:00 pm. The departmental committee of research ethics of the Pharmacy Department, University of Malakand, approved the study protocol via reference no DREC/20210622/50.
Acute toxicity was carried out for the safety profile assessment of our test compounds. For this purpose, the mice were grouped into six different groups (n = 6). The test compound was given to each mouse at different doses (25 to 1000 mg/kg) via the intraperitoneal (i.p) route. Changes in behaviour such as convulsions, hyperactivity, writhing, sedation, righting reflex, aggressiveness, grooming, ataxia, motor activity (increased or decreased), respiratory arrest, and mortality were observed after the administration of sample solution for the first two hours and then again for 24 hours.

[2] = system: scopolamine-induced amnesic mice; assay: Y-Maze test in scopolamine-induced amnesic animals; assay type: in vivo, albino mice; conditions: scopolamine 1 mg/kg amnesic mice, i.p., AN-1 10 mg/kg, progesterone 10 mg/kg, galantamine 8 mg/kg, disease group 22.27%
Method: (§1) The mice were divided into the following five groups, and each group had six animals. The standard drug and test samples were carefully administered to the mice via the intraperitoneal route.
(§2) Group IV (Progesterone treated group) = Animals treated with 10 mg/kg progesterone and scopolamine 1 mg/kg.
(§3) Group V (Test compound group) = Animals received 10 mg/kg progesterone derivative (AN-1) and 1 mg/kg scopolamine.
To determine the effect of synthesized compounds on short-term learning and memory of experimental mice, a Y-Maze test was used. The Y-Maze apparatus consists of three arms that are fixed at 120° angle from each other and have 30 cm length, 20 cm height, and 8 cm width dimensions. After 30 minutes of giving test compounds intraperitoneally, the mouse was positioned at the arm end in such a way that it faced away from the midpoint of the apparatus and was permitted to search the apparatus for five minutes freely. The arm entry sequence and number by each mouse were recorded for 5 minutes using a digital camera. Alternation is defined as the successive entry into 3 dissimilar arms by a mouse (i.e., CBA, BCA, ABC). When the back paws of a mouse were found inside an arm wholly, the arm entry was considered completed. Seventy percent v/v ethanol was used for cleaning the apparatus and to avoid smell cues. The spontaneous alternation performance (SAP) percentage was calculated using the following formula [37]:
% alternation = [(alternations number) / (total arm entries number – 2)] × 100

[3] = DPPH antioxidant assay; assay type: physicochemical; conditions: for % Inhibition (DPPH free radicals): mean ± SEM
Method: To evaluate the in-vitro antioxidant potential of the synthesized derivatives, a previously reported 1,1 Diphenyl, 2 Picrylhydrazyl (DPPH) assay was utilized. The DPPH solution was prepared by dissolving twenty-four mg DPPH in methanol (100 ml). Test sample solutions in various concentrations (62.50 to 1000 μg/mL) were also prepared. From each dilution, 1 ml sample solution was taken to which 1 ml solution of DPPH was added. The solution mixture was incubated at 23°C for 30 minutes in the dark and then subjected to a UV-visible spectrophotometer to note the absorbance at 517 nm. The absorbance values of all samples were taken in triplicate. Ascorbic acid served as positive control, while negative control only contained a solution of DPPH having no test samples. The % free radical scavenging potential of our compounds was determined by the given formula.
% free radical scavenging activity = [drawing 2] x100
X is the control absorbance, whereas X1 is the absorbance of the test sample.

[4] = system: scopolamine-induced amnesic mice; assay: Open field test (OFT) in scopolamine-induced amnesic animals; assay type: in vivo, albino mice; conditions: i.p., AN-1 10 mg/kg, progesterone 10 mg/kg, galantamine 8 mg/kg
Method: as §1, §2, §3
Open field behavioral test was carried out for the assessment of locomotor activities like the number of line crossing. The apparatus was made from plywood having 81×81×28.5 cm dimensions. Sixteen squares (20×20 cm) were made on the base of the apparatus by drawing four horizontal and four vertical lines. […] Furthermore, exploration time spent by mice in central and peripheral areas of the apparatus was also recorded by allowing the mice for 30 minutes to explore the apparatus.

[5] = biological target: T1, BChE (source equine serum) (Equus caballus, UniProt P81908); assay: biochemical
T1 construct: from tissue; host or cells: equine serum
Method: (§4) The cholinesterase inhibitory potentials of our synthesized compounds were evaluated against cholinesterase enzymes (AChE/BChE). The AChE (source Electric eel) and BChE (source equine serum) were used in the study following previously published Ellman's assay. The assay basic principle involves the hydrolytic breakdown of acetylthiocholine iodide (ATChI) by AChE and butyryl thiocholine iodide (BTChI) by BChE enzymes, leading to the formation of an intermediate compound which is subsequently complexed with 5,5-dithio bis nitrobenzoic acid (DTNB) to form a UV-detectable compound. The yellowish color product indicates the hydrolysis of ATChI and BTChI substrates by respective enzymes, which were analyzed at 412 nm using a UV-visible spectrophotometer. […] A test sample of 1000 µl was taken in a cuvette, to which enzyme solution (50 µl) and DTNB reagent of 50 µL were added. The AChE (0.03 U/ml) and BChE (0.01 U/ml) solutions were prepared in 0.1 M phosphate buffer having pH 8.0. The ATChI and BTChI substrate solutions (0.0005 M) and 0.0002273 M solution of DTNB were prepared using distilled water and stored at 8°C before further use. For 15 minutes, the solution mixture was incubated at 30 °C, after which a solution of the substrate (50 µl) was added and then subjected to spectroscopic analysis. Using a double beam spectrophotometer, the sample absorbance was measured for 4 minutes at 412 nm beside the time of reaction. […] All values were taken in triplicate under the same conditions.
(§5) Enzymatic activity percentage=V/Vmaxx100
(§6) V is the reaction rate in the inhibitor's presence, whereas Vmax is the reaction rate in the absence of the inhibitor.

[6] = biological target: T2, AChE (source Electric eel) (Electrophorus electricus, UniProt O42275); assay: biochemical
T2 construct: from tissue
Method: as §4, §5, §6

T1 sequence (P81908 whole entry): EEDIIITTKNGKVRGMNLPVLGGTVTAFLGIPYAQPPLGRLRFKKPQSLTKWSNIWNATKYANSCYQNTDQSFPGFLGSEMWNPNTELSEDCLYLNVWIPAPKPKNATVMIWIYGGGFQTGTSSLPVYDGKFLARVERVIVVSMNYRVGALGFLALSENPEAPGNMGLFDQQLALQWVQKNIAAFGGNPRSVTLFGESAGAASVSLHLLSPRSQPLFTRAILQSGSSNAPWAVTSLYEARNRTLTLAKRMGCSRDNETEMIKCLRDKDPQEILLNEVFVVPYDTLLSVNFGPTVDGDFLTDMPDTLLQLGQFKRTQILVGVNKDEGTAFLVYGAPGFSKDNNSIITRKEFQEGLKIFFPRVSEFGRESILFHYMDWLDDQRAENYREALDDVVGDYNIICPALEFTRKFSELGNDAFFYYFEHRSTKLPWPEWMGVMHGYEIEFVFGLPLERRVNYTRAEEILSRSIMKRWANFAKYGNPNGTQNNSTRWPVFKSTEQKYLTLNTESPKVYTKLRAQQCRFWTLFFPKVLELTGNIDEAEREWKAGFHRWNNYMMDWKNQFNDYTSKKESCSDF
T2 sequence (O42275 24-633): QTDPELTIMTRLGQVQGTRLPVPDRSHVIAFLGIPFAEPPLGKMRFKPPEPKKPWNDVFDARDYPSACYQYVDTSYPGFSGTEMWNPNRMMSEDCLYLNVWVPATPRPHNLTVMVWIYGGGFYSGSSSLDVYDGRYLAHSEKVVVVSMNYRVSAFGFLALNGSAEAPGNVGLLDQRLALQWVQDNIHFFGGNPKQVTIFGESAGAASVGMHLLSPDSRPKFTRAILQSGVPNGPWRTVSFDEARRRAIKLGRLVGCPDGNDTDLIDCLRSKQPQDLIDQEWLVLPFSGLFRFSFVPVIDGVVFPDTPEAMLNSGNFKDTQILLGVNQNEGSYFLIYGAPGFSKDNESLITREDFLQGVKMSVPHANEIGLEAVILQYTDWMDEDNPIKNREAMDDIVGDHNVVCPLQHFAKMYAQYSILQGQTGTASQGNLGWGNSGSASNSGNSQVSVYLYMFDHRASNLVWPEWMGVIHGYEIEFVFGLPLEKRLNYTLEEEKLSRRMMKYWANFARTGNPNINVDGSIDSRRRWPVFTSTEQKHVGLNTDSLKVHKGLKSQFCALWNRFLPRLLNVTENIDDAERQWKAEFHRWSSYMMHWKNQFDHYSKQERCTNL

COc1ccc(C/N=C(/C)[C@H]2CC[C@H]3[C@@H]4CCC5=CC(=O)CC[C@]5(C)[C@H]4CC[C@]23C)cc1 [AN1, (8S,9S,10R,13S,14S)-17-((Z)-1-((4-methoxybenzyl)imino)ethyl)-10,13-dimethyl-1,2,6,7,8,9,10,11,12,13,14,15,16,17-tetradecahydro-3H-cyc-lopenta[a]phenanthren-3-one]
toxic dose (mortality observed) [1]: ≥ 1000 mg/kg
dose safe, without toxic effects, mortality or unusual behavioral response ([1]; observed 2 h and 24 h): ≤ 500 mg/kg
spontaneous alternation [2]: 42.72 ± 9.41%
spontaneous alternation ([2]; listed as AN-1): 42.72%
IC50 [3]: 57.2 µM
% Inhibition (DPPH free radicals) ([3]; 62.5 µg/ml): 56.46 ± 1.12%
% Inhibition (DPPH free radicals) ([3]; 125 µg/ml): 67.64 ± 3.04%
% Inhibition (DPPH free radicals) ([3]; 250 µg/ml): 70.00 ± 3.95%
% Inhibition (DPPH free radicals) ([3]; 500 µg/ml): 76.15 ± 2.31%
% Inhibition (DPPH free radicals) ([3]; 1000 µg/ml): 83.37 ± 2.03%
number of lines crossed ([4]; 5 min, scopolamine 1 mg/kg amnesic mice, disease group 26.33): 43.66
time spent in the central area ([4]; 30 min exploration, scopolamine 1 mg/kg amnesic mice, disease group 4.66): 10.33 mint
time spent in the peripheral area ([4]; versus scopolamine/disease group): significantly (p<0.01) less time in the peripheral area
IC50 [5]: 43.3 µM
inhibition at 62.5 µg/mL ([5]; read-out: % BChE Inhibition): 61.5%
inhibition at 125 µg/mL ([5]; read-out: % BChE Inhibition): 68.3%
inhibition at 250 µg/mL ([5]; read-out: % BChE Inhibition): 71.9%
inhibition at 500 µg/mL ([5]; read-out: % BChE Inhibition): 80.4%
inhibition at 1000 µg/mL ([5]; read-out: % BChE Inhibition): 86.8 ± 1.24%
IC50 [6]: 56.5 µM
inhibition at 125 µg/mL ([6]; read-out: % AChE Inhibition): 69.4%
inhibition at 250 µg/mL ([6]; read-out: % AChE Inhibition): 76.3%
inhibition at 500 µg/mL ([6]; read-out: % AChE Inhibition): 83.2%
inhibition at 1000 µg/mL ([6]; read-out: % AChE Inhibition): 88.9 ± 1.2%
